Earlier results as cited in patent US20060058387A1, “Composition and method for treating skin conditions” (priority 2004, published 2006).
Each block holds one molecule with its values, some of them ahead of it.

Assays:
[1] = children, dosage intakes of 200-800 mg/kg
interstitial cystitis = conditions: bladder instillations of a 50% aqueous solution

Molecule: C[N+](C)(C)CC(O)CC(=O)[O-] (stereo not drawn) [carnitin, γ-Trimethyl-β-hydroxybutyrobetain]
- side effects [1]: No side effects were observed

- binding to plasma proteins (in vivo): highly bound
- terminal elimination half-life (in vivo): 30 to 120 min
- oral bioavailability (oral): about 50%
- time to peak plasma concentrations (oral administration): 1 to 2 h
Molecule: CC1=C(/C=C/C(C)=C/C=C/C(C)=C/C(=O)O)C(C)(C)CCC1 [tretinoin, all-trans retinoic acid]

Molecule: Sulphinyl-bis-methane [DMSO]
- effect on symptoms of interstitial cystitis (interstitial cystitis): appear to alleviate symptoms
